Several values for one entry are separate records, joined by “and”; a condition that tells them apart may be missing. Equal entries are not always repeated. Where two headings read alike, the source gives them in different places.

EC50, IC50 and half-life data for six compounds are collected here from US12304909B2, “Compounds and their use in therapy” (IMPERIAL COLLEGE INNOVATIONS LIMITED, priority 2018, dated 2025).

Series [1] deals with LY 12318 cells. Description: CellTiter-Blue assay, LY 12318. The following applies: 72 h, read-out: LY12318 EC50. In kind it is cell-based, human. The procedure: (§1) Example NMT inhibitors of the present invention were tested for activity in in vitro CellTiter-Blue® assays using the human cell line MDA MB 231, LY 12318, or BL-41. Comparative Examples 1 and 2 were also tested in the same assays. Compounds having activity in inhibiting metabolic activity in the assay are expected to be useful as agents for preventing and/or treating cancer, by virtue of being inhibitors of human NMT1 and/or NMT2.
(§2) MDA MB 231 cells (obtained from Professor Eric Aboagye, Hammersmith Hospital; cell type: triple negative breast cancer) were grown in low glucose DMEM in 5% CO2 media (supplemented with 10% FBS); LY 12318 cells (obtained from Dr Martin Janz, Max Delbrueck Center; cell type: B cell lymphoma patient derived xenograft) were grown in DMEM media (supplemented with 10% FBS); and BL-41 cells (obtained from Cell Services at the Crick Institute; cell type: Burkitt's Lymphoma) were grown in RPMI-1640 media in 5% CO2 (supplemented with 10% FBS). The MDA MB 231 cells, LY 12318 cells or BL-41 cells were seeded in 96-well plates, 24 h prior to treatment. Cell suspensions were prepared by adjusting the cell density to the appropriate concentration (as stated in the Table 2 below) and 50 μL of the cell suspension was transferred to wells B-G in columns 2-11 of a 96-well plate.
(§3) Twenty-four hours later, 50 μl of growth media (low glucose DMEM in 5% CO2 media supplemented with 10% FBS for MDA MB 231 cells; DMEM media in 5% CO2 supplemented with 10% FBS for LY 12318 cells; or RPMI-1640 media supplemented with 10% FBS for BL-41 cells) containing 0.0004% DMSO (positive control), a mix of Puromycin and Staurosporine (negative controls, final concentration 2 μg/mL and 1 μM respectively) or different concentrations of each Example (Example 1 and 2) or each Comparative Example (Comparative Example 1 and 2) (dilution factor=3, starting at […], final concentration in the plate starting from 10 μM) were prepared and added to a well of the 96-well plate. The plate was incubated at 37° C. with 5% CO2 level.
(§4) 72 hours later, 20 μl/well CellTiter-Blue® (G8081, Promega) were added to the plates according to the manufacturer's protocol, the plate was incubated at 37° C. for 4 h for MDA MB 231 cells and BL-41 cells, or 3 h for LY 12318 cells, followed by measuring the absorbance per well at 570 nm using an EnVision plate reader. The negative control values were subtracted from every value. The metabolic activity was calculated as a percentage relative to the positive control. The EC50 values were calculated using GraphPad Prism.
In general terms: Alamar Blue is a resazurin reagent that responds to reducing activity.

The test system of series [2] is BL-41 cells. The experiment in a line: CellTiter-Blue assay, BL-41. The class given is cell-based, human. The procedure: as §1, §2, §3, §4
The target in series [3] is T1, human NMT1 (HsNMT1) (Homo sapiens, UniProt P30419).
T1 sequence (P30419 1-496): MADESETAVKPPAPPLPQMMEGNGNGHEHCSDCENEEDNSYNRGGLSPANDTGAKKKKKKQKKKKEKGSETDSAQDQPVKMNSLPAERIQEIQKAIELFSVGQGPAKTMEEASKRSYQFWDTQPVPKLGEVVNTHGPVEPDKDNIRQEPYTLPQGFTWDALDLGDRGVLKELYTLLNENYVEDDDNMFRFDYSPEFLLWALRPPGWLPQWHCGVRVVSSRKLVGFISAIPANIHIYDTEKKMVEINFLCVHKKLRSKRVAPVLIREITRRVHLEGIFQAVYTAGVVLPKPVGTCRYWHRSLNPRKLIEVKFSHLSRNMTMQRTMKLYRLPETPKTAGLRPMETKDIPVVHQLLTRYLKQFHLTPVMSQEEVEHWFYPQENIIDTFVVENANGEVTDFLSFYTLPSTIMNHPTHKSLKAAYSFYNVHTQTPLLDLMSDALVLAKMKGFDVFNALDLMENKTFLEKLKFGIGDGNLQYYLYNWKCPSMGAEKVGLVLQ
Description: HsNMT1 IC50, fluorescence-based assay detecting CoA with CPM. The class given is biochemical. The procedure: The IC50 values for human NMT1 (HsNMT1) of four Example compounds of the invention described above (Examples 1-4) and six comparative examples (Comparative Examples 1, 2, 3, 4, 5 and 6) were measured using a sensitive fluorescence-based assay based on detection of CoA by 7-diethylamino-3-(4-maleimido-phenyl)-4-methylcoumarin, as described in Goncalves, V., et al., Analytical Biochemistry, 2012, 421, 342-344 and Goncalves, V., et al., J. Med. Chem, 2012, 55, 3578.

Series [4] deals with MRC5 cells. Description: Metabolic activity assay (MTS assay), MRC5. In kind it is cell-based, human. The procedure:
Example NMT inhibitors of the present invention were tested for activity in an in vitro metabolic activity assay using the human cell line MRC5. Comparative Examples 1, 2, 3, 4, 5 and 6 were also tested in the same metabolic activity assay. Compounds having activity in inhibiting metabolic activity in the assay are expected to be useful as agents for preventing and/or treating cancer, by virtue of being inhibitors of human NMT1 and/or NMT2.
MRC5 cells (obtained from Dr David Mann's group, Imperial College; cell type: fibroblasts cells which derive from normal lung tissue) were grown in DMEM media (supplemented with 10% FBS) and were seeded in a 96-well plate, 24 h prior to treatment. Cell suspensions were prepared by adjusting the cell density to the appropriate concentration (as stated in the Table 1 below) and 50 μL of the cell suspension was transferred to wells B-G in columns 2-11 of a 96-well plate.
100 μL of growth media (DMEM media) containing 0.2% DMSO was added to wells B-G in columns 2 and 11 as positive controls, and 100 μl of growth media containing Puromycin (3 μg/mL; final concentration in the plate 2 μg/mL) was added to wells B-G in column 3 as a negative control. Seven concentrations of NMT inhibitor stock solution were prepared for each Example (Example 1 and 2) and each Comparative Example (Comparative Examples 1, 2, 3, 4, 5 and 6) tested (same final percentage of DMSO, dilution factor=3 starting from 15 μM or 150 μM). 100 μL of inhibitor stock solution was added to wells B-G in columns 4-10 of a 96-well plate (final concentration of Example compound or Comparative Example compound in the plate starting from 10 μM or 100 μM; total volume in each well was 150 μL). The plate was incubated at 37° C. with 5% CO2 level.
After 72 h, 20 μL MTS reagent (Promega, prepared according to the supplier protocol) was added to each well of the 96-well plate. The plate was incubated at 37° C. for 2 h and the absorbance per well was measured at 490 nm with an EnVision plate reader. The average absorbance value of the negative control (Puromycin-treated cells) was subtracted from each value and the metabolic activity was calculated as a percentage relative to the positive control (DMSO-treated cells). EC50 values were calculated using GraphPad.

Series [5] deals with MDA MB 231 cells. The experiment in a line: CellTiter-Blue assay, MDA MB 231. In kind it is cell-based, human. The procedure: as §1, §2, §3, §4
Series [6] can be described thus: Rat hepatocyte half life. The class given is in vitro ADME, Sprague-Dawley rats. Conditions: pooled cryopreserved rat hepatocytes, pH 7.4; pooled male Sprague-Dawley rat hepatocytes; read-out: Rat Hepatocyte t ½. The procedure:
Example Compound 1 was tested for metabolic stability in rat metabolic assays using hepatocytes derived from pooled male Sprague-Dawley rats. Comparative Examples 2, 3 and 4 were also tested in the same assay. Compounds having good metabolic stability in the assay are expected to be especially useful as agents for preventing and/or treating cancer, by having a long half-life in human patients.
Frozen pooled rat hepatocytes obtained from LifeTechnologies were thawed and purified according to the manufacturer's instructions. The test compound (4 mM) in DMSO was diluted with acetonitrile to provide a 100 μM sub-stock then further diluted with pH7.4 Krebs-Henseleit buffer supplemented with CaCl2), NaHCO3, HEPES, fructose and glycine) to provide a 2 μM working solution. 25 μL of working solution was incubated at 37° C., treated with 25 μL of rat hepatocyte suspension (containing 1×10^6 cells/mL) and incubated at 37° C. with 5% CO2 level at 95% relative humidity. Wells were incubated for an appropriate time (0, 15, 30, 45, 60 and 75 min) then quenched with 250 μL of acetonitrile containing reference standards diltiazem, 7-ethoxycoumarin and propranolol). The plates were shaken, sonicated for 5 min then cooled to 4° C. until all sampling was complete. All plates were centrifuged at 4000 rpm for 20 min to pellet the debris. 110 μl supernatant was diluted 110 μL water and quantitated using LC-MS/MS.
The results were used to calculate the % Remaining of the test compound at time point t=100×˜[(AUC at time point t)/(AUC at T=0)]. A linear regression curve was fitted to a plot of natural logarithm (In) of AUC against time. The T-half (min)=0.693/slope

Series [7] is described as follows: Human liver microsomes half life. The class given is in vitro ADME. Conditions: pH 7.4, read-out: Human liver microsomes t ½. The procedure: Example Compound 1 was tested for metabolic stability in an assay using human liver microsomes. Comparative Examples 2, 3, 4, 5 and 6 were also tested in the same assay. Compounds having good metabolic stability in the assay are expected to be especially useful as agents for preventing and/or treating cancer, by having a long half-life in human patients
Frozen human liver microsomes obtained from Corning, USA (cat #452117) were thawed and diluted with 100 mM of pH 7.4 phosphate buffer to give a 1 mg/ml solution. An NADPH regeneration system (NRS) was prepared as a solution containing 13 mM NADP, 33 mM glucose-6-phosphate, 33 mM MgCl2 and 4U/mL glucose-6-phosphate dehydrogenase in 100 mM of pH7.4 phosphate buffer. The test compound (4 mM) in DMSO was diluted with acetonitrile to provide a 100 μM sub-stock then further diluted with 100 mM of pH7.4 phosphate buffer to provide a 2 μM working solution. The liver microsome solution and NRS were incubated at 37° C. before use. To each well of the test plate was dispensed 60 μL of buffer, 50 μL of test compound solution and 10 μL of NRS. A reaction was initiated by addition of 40 μL of liver microsome solution. Wells were incubated for an appropriate time (0, 5, 10, 20, 30 and 60 min) then quenched with 300 μL of acetonitrile containing reference standards atenolol, propranolol, diclofenac, verapamil). All plates were centrifuged at 3500 rpm for 20 min at 15° C. to pellet the debris. 110 μL supernatant was diluted 110 μL water and quantitated using LC-MS/MS.
The results were used to calculate the % Remaining of the test compound at time point t=100×˜[(AUC at time point t)/(AUC at T=0)]. A linear regression curve was fitted to a plot of natural logarithm (In) of AUC against time. The T-half (min)=0.693/slope.
In general terms: Liver microsomes are a subcellular fraction often used to study metabolism.

In general, EC50 refers to the concentration giving half of the maximal effect. Usually IC50 stands for the concentration needed to halve the response being measured. Low values mean higher potency, high ones lower potency. Regarding `Cc1c(CCOc2cc(F)ccc2-c2ccc3ncc(CCN)n3c2)c(C(=O)N(C)C)nn1C` [Comparative Example 1, 4-(2-{2-[3-(2-aminoethyl)imidazo[1,2-a]pyridin-6-yl]-5-fluorophenoxy}ethyl)-N,N,1,5-tetramethyl-1H-pyrazole-3-carboxamide], the EC50 was 246 nM in series [1] (Homo sapiens); 91 nM in series [2] (Homo sapiens, BL-41, 72 h); 450 nM in series [4] (Homo sapiens, MRC5, 72 h); 285 nM in series [5] (Homo sapiens, MDA-MB-231, 72 h). Further, the IC50 in series [3] turned out to be 2 nM.

Take `Cc1c(CCOc2cc(F)ccc2-c2ccc3ncc(CN(C)C)n3c2)c(C(=O)N(C)C)nn1C` [Comparative Example 4, 4-[2-(2-{3-[(dimethylamino)methyl]imidazo[1,2-a]pyridin-6-yl}-5-fluorophenoxy)ethyl]-N,N,1,5-tetramethyl-1H-pyrazole-3-carboxamide]: the half-life at 1 µM in series [6] stood at 32 min. Besides, the IC50 in series [3] is ~1 nM and 1 nM. The half-life at 0.625 µM in series [7] amounted to 12 min. Further, it took 63 nM to reach a half-maximal effect in series [4] (Homo sapiens, MRC5, 72 h) (EC50).

For `Cc1nn(C)c(C)c1CCOc1c(F)cccc1-c1ccc2c(c1)c(CN(C)C)nn2C` [Comparative Example 6, 1-(5-(3-fluoro-2-(2-(1,3,5-trimethyl-1H-pyrazol-4-yl)ethoxy)phenyl)-1-methyl-1H-indazol-3-yl)-N,N-dimethylmethanamine], the half-life at 0.625 µM in series [7] amounted to 4 min. The compound also came in with a 50% effective concentration (EC50) in series [4] (Homo sapiens, MRC5, 72 h) of 38 nM.

With `CNC(=O)c1nn(C)c(C)c1CCOc1cc(Cl)ccc1-c1ccc2ncc(CCN)n2c1` [Example Compound 2, 4-(2-{2-[3-(2-aminoethyl)imidazo[1,2-a]pyridin-6-yl]-5-chlorophenoxy}ethyl)-N,1,5-trimethyl-1H-pyrazole-3-carboxamide], the 50% effective concentration (EC50) was 69 nM in series [1]; below 70 nM in series [1] (Homo sapiens); 24 nM in series [2] (72 h); 37 nM in series [4] (72 h); below 40 nM in series [4] (Homo sapiens, MRC5, 72 h); 45 nM in series [5] (72 h). In series [5] (Homo sapiens, MDA-MB-231, 72 h), this compound registered a 50% effective concentration (EC50) below 70 nM.

`Cc1c(CCOc2c(-c3ccc4ncc(CCN)n4c3)ccc(Cl)c2F)c(C(=O)N(C)C)nn1C` [Example Compound 3, 4-(2-{6-[3-(2-aminoethyl)imidazo[1,2-a]pyridin-6-yl]-3-chloro-2-fluorophenoxy}ethyl)-N,N,1,5-tetramethyl-1H-pyrazole-3-carboxamide]: the concentration for half-maximal inhibition (IC50) in series [3] was 4.2 nM.

Compound `CNC(=O)c1nn(C)c(C)c1CCOc1c(-c2ccc3ncc(CCN)n3c2)ccc(Cl)c1F` [Example Compound 4, 4-(2-{6-[3-(2-aminoethyl)imidazo[1,2-a]pyridin-6-yl]-3-chloro-2-fluorophenoxy}ethyl)-N,1,5-trimethyl-1H-pyrazole-3-carboxamide] gave a 50% inhibitory concentration (IC50) in series [3] of 6.3 nM. This IC50 is about 1.5-fold higher than that of the compound before.
